Laboratory results published in US7053095B2, “Triazole compounds as transforming growth factor (TGF) inhibitors” (Pfizer Inc., priority 2002, dated 2006).

Target: T1, TβRI (ALK-5) (Homo sapiens, UniProt P36897)
T1 construct: with same assay conditions using either the kinase domain of ALK5 with Smad3 as substrate; GST
T1 sequence (P36897 205-495 limits assumed): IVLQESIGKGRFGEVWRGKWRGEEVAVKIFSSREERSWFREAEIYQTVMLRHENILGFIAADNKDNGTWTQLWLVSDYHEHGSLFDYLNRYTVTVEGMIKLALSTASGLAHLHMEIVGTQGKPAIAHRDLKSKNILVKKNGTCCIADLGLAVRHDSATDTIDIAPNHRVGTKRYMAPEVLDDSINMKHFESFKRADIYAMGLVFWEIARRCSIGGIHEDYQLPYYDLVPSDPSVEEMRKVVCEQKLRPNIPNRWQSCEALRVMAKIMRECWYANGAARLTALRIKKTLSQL
Test: ALK-5 (TβRI) kinase assay
Format: biochemical
Method: ALK-5 (TβRI) Kinase Assay Protocol
The kinase assays were performed with 65 nM GST-ALK5 and 84 nM GST-Smad3 in 50 mM HEPES, 5 mM MgCl2, 1 mM CaCl2, 1 mM dithiothreitol, and 3_M ATP. Reactions were incubated with 0.5_Ci of [33 P]_ATP for 3 h at 30° C. Phosphorylated protein was captured on P-81 paper (Whatman, Maidstone, England), washed with 0.5% phosphoric acid, and counted by liquid scintillation. Alternatively, Smad3 or Smad1 protein was also coated onto FlashPlate Sterile Basic Microplates (PerkinElmer Life Sciences, Boston, Mass.). Kinase assays were then performed in Flash-Plates with same assay conditions using either the kinase domain of ALK5 with Smad3 as substrate or the kinase domain of ALK6 (BMP receptor) with Smad1 as substrate. Plates were washed three times with phosphate buffer and counted by TopCount (Packard Bio-science, Meriden, Conn.). (Laping, N.J. et al. Molecular Pharmacology 62:58–64 (2002)).

IC50: ~58 nM
Structure (SMILES): Cc1cccc(-c2n[nH]nc2-c2ccc3nnc(C)n3c2)n1 [Example 2, 3-Methyl-6-[5-(6-methyl-pyridin-2-yl)-2H-[1,2,3]triazol-4-yl]-[1,2,4]triazolo[4,3-a]pyridine]
